The values that follow come from PMC10882719 (Frontiers in Neuroscience, 2024).

One may read the IC50 as the concentration that gives 50% inhibition. As usually defined, the EC50 is the concentration that produces a half-maximal response. Read a high EC50 as a need for much substance.

Data set [1] addresses T1, 5HT reuptake (SERT), rat brain synaptosomes (Rattus norvegicus, UniProt P31652).
T1 construct: Rat brain synaptosomes were isolated from Sprague Dawley rats (200-250 g); from tissue; host or cells: rat brain synaptosomes (Sprague Dawley)
The data set can be described thus: Uptake inhibition assay, [3H]5-HT, rat brain synaptosomes. The class given is biochemical.

Data set [2] has as its target T2, NE uptake (NET), rat brain synaptosomes (Rattus norvegicus, UniProt Q63380).
T2 construct: Rat brain synaptosomes were isolated from Sprague Dawley rats (200-250 g); from tissue; host or cells: rat brain synaptosomes (Sprague Dawley)
The data set can be described thus: Uptake inhibition assay, [3H]NE, rat brain synaptosomes. The data set is classed as biochemical.

Data set [3] has as its target T3, DA uptake (DAT), rat brain synaptosomes (Rattus norvegicus, UniProt P23977).
T3 construct: Rat brain synaptosomes were isolated from Sprague Dawley rats (200-250 g); from tissue; host or cells: rat brain synaptosomes (Sprague Dawley)
Put plainly: Uptake inhibition assay, [3H]DA, rat brain synaptosomes. The class given is biochemical.

Data set [4] has as its target T4, 5HT release (SERT), rat brain synaptosomes (Rattus norvegicus, UniProt P31652).
T4 construct: Rat brain synaptosomes were isolated from Sprague Dawley rats (200-250 g); from tissue; host or cells: rat brain synaptosomes (Sprague Dawley)
The data set can be described thus: Release assay, [3H]5-HT, superfused rat brain synaptosomes. The class given is biochemical. The protocol:
(§1) Test compounds and synaptosomes were prepared as described for uptake inhibition assays. Synaptosomes treated with [^3H] 5-HT, [^3H] DA or [^3H] NE were loaded onto filter chambers containing GF/C filters and placed in a superfusion system. Oxygenated Krebs buffer was perfused through the chambers at a rate of 1.5 mL/min at 35°C using either an 8-channel or a 12-channel peristaltic pump. Trapped air bubbles were removed from the filters prior to collecting fractions to ensure an even flow over the synaptosomal bed. After a superfusion period of 45 min, 2 basal fractions were collected followed by 6 fractions following the addition of the test drug. […] After the addition of scintillation cocktail, radioactivity was counted using a Wallac® TriLux 1,450 MicroBeta counter. […] Scintillation cocktail was added, and the filters counted to determine residual radioactivity. Drug-evoked release of neurotransmitter was calculated by subtracting the average of the two basal fractions (collected prior to the drug addition), from the four fractions collected in the presence of drug. The drug-evoked release was then expressed as a percentage of the basal release. Potassium-evoked release was calculated by subtracting the average of two fractions collected prior to the addition of high KCl buffer from that in the two fractions following addition of high KCl buffer. […]

Data set [5] concerns the target T5, NE release (NET), rat brain synaptosomes (Rattus norvegicus, UniProt Q63380).
T5 construct: Rat brain synaptosomes were isolated from Sprague Dawley rats (200-250 g); from tissue; host or cells: rat brain synaptosomes (Sprague Dawley)
Put plainly: Release assay, [3H]NE, superfused rat brain synaptosomes. The class given is biochemical. As for the experimental part:
as §1

In data set [6] the target is T6, DA release (DAT), rat brain synaptosomes (Rattus norvegicus, UniProt P23977).
T6 construct: Rat brain synaptosomes were isolated from Sprague Dawley rats (200-250 g); from tissue; host or cells: rat brain synaptosomes (Sprague Dawley)
The data set can be described thus: Release assay, [3H]DA, superfused rat brain synaptosomes. The data set is classed as biochemical. The protocol:
as §1

Data set [7] relates to immobility in the forced swim test. On the set-up: method as in Warner-Schmidt et al., 2022. The settings on record: rats, ref Warner-Schmidt et al., 2022, cited from earlier work.
Data set [8] has as its system PTSD patients (CAPS-5). To be noted: open-label, 14 PTSD patients; ref Jones et al., 2023; cited from earlier work.

T6 sequence (P23977 whole entry): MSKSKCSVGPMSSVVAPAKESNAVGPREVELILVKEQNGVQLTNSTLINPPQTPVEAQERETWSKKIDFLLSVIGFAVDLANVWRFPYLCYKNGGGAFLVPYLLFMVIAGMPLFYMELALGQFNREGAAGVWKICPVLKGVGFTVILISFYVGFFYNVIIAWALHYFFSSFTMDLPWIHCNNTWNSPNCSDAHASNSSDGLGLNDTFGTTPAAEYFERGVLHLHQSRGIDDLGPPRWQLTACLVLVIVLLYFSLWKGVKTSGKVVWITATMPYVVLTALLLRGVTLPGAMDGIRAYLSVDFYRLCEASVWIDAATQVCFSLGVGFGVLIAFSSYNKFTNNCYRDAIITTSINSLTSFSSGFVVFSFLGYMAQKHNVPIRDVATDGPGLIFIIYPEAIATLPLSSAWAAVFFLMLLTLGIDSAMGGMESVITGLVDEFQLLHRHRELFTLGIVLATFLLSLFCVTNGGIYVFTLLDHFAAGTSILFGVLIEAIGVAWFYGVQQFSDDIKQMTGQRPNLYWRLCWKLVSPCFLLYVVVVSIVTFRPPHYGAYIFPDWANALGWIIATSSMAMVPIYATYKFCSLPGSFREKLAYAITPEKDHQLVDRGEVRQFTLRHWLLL
T3 sequence (P23977 whole entry): as above
T1 sequence (P31652 whole entry): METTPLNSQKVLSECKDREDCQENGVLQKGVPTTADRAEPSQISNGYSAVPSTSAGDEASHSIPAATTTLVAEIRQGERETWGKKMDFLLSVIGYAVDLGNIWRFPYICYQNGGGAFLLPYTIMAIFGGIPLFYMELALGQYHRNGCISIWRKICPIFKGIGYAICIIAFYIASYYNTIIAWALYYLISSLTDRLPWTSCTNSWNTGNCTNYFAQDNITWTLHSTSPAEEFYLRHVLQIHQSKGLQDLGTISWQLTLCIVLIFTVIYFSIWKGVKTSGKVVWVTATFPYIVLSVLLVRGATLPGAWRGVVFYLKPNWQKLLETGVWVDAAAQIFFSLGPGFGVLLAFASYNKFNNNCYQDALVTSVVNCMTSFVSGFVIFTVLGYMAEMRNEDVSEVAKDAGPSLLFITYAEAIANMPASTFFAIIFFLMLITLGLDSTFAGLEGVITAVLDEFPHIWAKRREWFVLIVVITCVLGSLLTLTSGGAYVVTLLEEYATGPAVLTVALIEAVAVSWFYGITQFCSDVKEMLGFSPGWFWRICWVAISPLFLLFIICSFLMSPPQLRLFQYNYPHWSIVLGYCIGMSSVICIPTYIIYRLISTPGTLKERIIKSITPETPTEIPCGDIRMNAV
T4 sequence (P31652 whole entry): as above
T5 sequence (Q63380 1-617): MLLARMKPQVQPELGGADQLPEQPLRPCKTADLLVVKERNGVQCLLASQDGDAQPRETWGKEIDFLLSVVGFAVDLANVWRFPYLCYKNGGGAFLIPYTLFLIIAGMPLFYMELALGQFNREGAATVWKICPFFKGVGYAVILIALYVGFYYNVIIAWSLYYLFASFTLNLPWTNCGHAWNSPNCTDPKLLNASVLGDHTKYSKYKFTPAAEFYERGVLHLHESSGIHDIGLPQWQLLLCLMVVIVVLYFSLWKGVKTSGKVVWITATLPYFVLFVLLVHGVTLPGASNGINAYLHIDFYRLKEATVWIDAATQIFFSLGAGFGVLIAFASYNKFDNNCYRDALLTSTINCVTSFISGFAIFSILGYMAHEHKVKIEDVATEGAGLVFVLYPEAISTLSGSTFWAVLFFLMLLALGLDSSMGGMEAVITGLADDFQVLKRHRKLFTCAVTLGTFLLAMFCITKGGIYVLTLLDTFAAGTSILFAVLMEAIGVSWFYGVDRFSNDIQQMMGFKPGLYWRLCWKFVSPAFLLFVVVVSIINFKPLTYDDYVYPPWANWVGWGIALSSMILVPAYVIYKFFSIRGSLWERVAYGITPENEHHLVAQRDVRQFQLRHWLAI
T2 sequence (Q63380 1-617): as above

Turning to `CNC(C)C(=O)c1ccc2c(c1)OCO2` (centres unmarked) [methylone], the results for the IC50 in data set [1], in data set [2] and in data set [3] were 430 nM, 130 nM and 2300 nM, respectively. Further, the EC50 in data set [4] came to 620 nM; in data set [5], 330 nM; in data set [6], 4790 nM. In addition, the “Amount of DA released compared to MDMA” value in data set [6] (rat brain synaptosomes, Figure 1C) is recorded as “Less DA was released”. For the same compound, the “Reduction in immobility in the forced swim test” value in data set [7] (30 min after a single human equivalent dose of 100–150 mg) was 95–98%. Further, in data set [7] (single dose), the “Duration of reduction in immobility post-dose” value was “at least 72 h”. The Adverse events entry in data set [8] is reported as “no significant adverse events”. The “Reduction in CAPS-5” value in data set [8] was 36.2 point.
